# Data published in patent US20220213061A9, “HETEROCYCLIC COMPOUNDS FOR MODULATING NR2F6” (TES Pharma S.r.l., priority 2020, published 2022).
# Structures can show the parent of a compound that is named as a salt.
# Molecular target: T1, recombinant human NR2F6 protein (Homo sapiens, UniProt P10588)
# T1 sequence (P10588 1-404): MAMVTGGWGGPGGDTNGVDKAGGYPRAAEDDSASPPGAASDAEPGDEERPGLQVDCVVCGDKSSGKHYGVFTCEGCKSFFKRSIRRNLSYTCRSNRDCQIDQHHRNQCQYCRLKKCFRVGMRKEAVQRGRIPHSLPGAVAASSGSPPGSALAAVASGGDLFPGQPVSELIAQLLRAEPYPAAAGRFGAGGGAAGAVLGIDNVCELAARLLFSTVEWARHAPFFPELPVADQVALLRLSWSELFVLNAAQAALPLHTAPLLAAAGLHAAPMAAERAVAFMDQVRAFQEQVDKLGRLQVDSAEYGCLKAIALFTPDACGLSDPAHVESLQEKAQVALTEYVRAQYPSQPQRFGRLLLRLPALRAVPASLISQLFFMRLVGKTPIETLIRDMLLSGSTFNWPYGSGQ
# Assay: Biochemical NR2F6 binding assay (EnSpire label-free)
# Conditions: label-free binding to immobilized purified recombinant human NR2F6; ligands 1 nM to 100 uM, 1% DMSO
# How it was run: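 Recombinant human NR2F6 was immobilized at pH 4.5 (50 μg/well, 16 h, 4° C) on label-free biosensor plates. Ligands were tested from 1 nM to 100 uM in 1% DMSO, with readings over 30 minutes. Binding was measured as reflected-wavelength shift (pm), and EC50 was derived from concentration-response curves.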
row,SMILES,EC50 [µM]
1,"O=C(Nc1cccc2cnccc12)[C@@H]1CNC[C@H]1c1nccs1 [Compound I-59, (3S,4S)—N-(Isoquinolin-5-yl)-4-(1,3-thiazol-2-yl)pyrrolidine-3-carboxamide dihydrochloride]",> 50
2,"CC(=O)N1C[C@@H](C(=O)Nc2cccc(-c3cccnc3)c2)[C@H](c2ccccc2)C1 (racemic) [Compound I-55, (±)-trans-1-Acetyl-4-phenyl-N-[3-(pyridin-3-yl)phenyl]pyrrolidine-3-carboxamide]",> 50
3,"O=C(Nc1cccc(Cc2ccccc2)c1)[C@@H]1CNC[C@H]1c1ccccc1 (racemic) [Compound I-85, (±)-trans-N-(3-Benzylphenyl)-4-phenylpyrrolidine-3-carboxamide hydrochloride]",1 to 10
4,"O=C(N[C@H]1C[C@H](c2ccccc2)C1)[C@@H]1CNC[C@H]1c1ccccc1 [Compound I-117, (3S,4R)-4-Phenyl-N-(trans-3-phenylcyclobutyl)pyrrolidine-3-carboxamide hydrochloride]",1 to 10
5,"O=C(Nc1cccc(-c2cccnc2)c1)[C@@H]1CNC[C@H]1c1cccs1 (racemic) [Compound I-49, (±)-trans-N-[3-(Pyridin-3-yl)phenyl]-4-(thiophen-2-yl)pyrrolidine-3-carboxamide dihydrochloride]",> 50
6,"Cc1ccc(O[C@H]2C[C@H](NC(=O)[C@H]3CNC[C@@H]3c3ccccc3)C2)cn1 (racemic) [Compound I-102, (±)-trans-N-{trans-3-[(6-Methylpyridin-3-yl)oxy]cyclobutyl}-4-phenylpyrrolidine-3-carboxamide dihydrochloride]",1 to 10
7,"S=C(Nc1cccc2cnccc12)O[C@@H]1CNC[C@H]1c1ccccc1 (racemic) [Compound I-2, (±)-trans-O-(4-Phenylpyrrolidin-3-yl) isoquinolin-5-ylcarbamothioate]",1 to 10
8,"O=C(NCc1ccncc1)[C@H]1CNC[C@@H]1c1ccccc1 [Compound I-31, (3R,4S)-4-Phenyl-N-(pyridin-4-ylmethyl)pyrrolidine-3-carboxamide dihydrochloride]",1 to 10
9,"O=C(Nc1cccc2ccccc12)[C@H]1CNC[C@@H]1c1ccc(C(F)(F)F)cc1 [Compound I-109, (3R,4S)—N-(Naphthalen-1-yl)-4-[4-(trifluoromethyl)phenyl]pyrrolidine-3-carboxamide hydrochloride]",1 to 10
10,"Cc1ccc(Oc2cccc(NC(=O)[C@H]3CNC[C@@H]3c3ccccc3)c2)cn1 (racemic) [Compound I-105, (±)-trans-4-Phenyl-N-{3-[(6-methylpyridin-3-yl)oxy]phenyl}pyrrolidine-3-carboxamide dihydrochloride]",1 to 10
11,"c1ccc([C@H]2CNC[C@@H]2Oc2cccc3cnccc23)cc1 (racemic) [Compound I-64, 5-{[(±)-trans-4-Phenylpyrrolidin-3-yl]oxy}isoquinoline dihydrochloride]",1 to 10

# Now from value to compound:
row,EC50 [µM],SMILES
1,1 to 10,"c1ccc([C@@H]2CNC[C@@H]2Oc2cccc3cnccc23)cc1 (racemic) [Compound I-61, 5-{[(±)-cis-4-Phenylpyrrolidin-3-yl]oxy}isoquinoline dihydrochloride]"
2,< 1,"N#Cc1ccc(Oc2cccc(NC(=O)[C@H]3CNC[C@@H]3c3ccccc3)c2)cc1 [Compound I-111, (3R,4S)—N-[3-(4-Cyanophenoxy)phenyl]-4-phenylpyrrolidine-3-carboxamide hydrochloride]"
3,1 to 10,"O=C(Nc1cccc(Nc2ccccc2)c1)[C@H]1CNC[C@@H]1c1ccccc1 [Compound I-113, (3R,4S)-4-Phenyl-N-[3-(phenylamino)phenyl]pyrrolidine-3-carboxamide hydrochloride]"
4,1 to 10,"O=C(Nc1cccc(-c2ccccc2)c1)[C@@H]1CNC[C@H]1c1ccccc1 (racemic) [Compound I-13, (±)-trans-N-(Biphenyl-3-yl)-4-phenylpyrrolidine-3-carboxamide]"
5,< 1,"O=C(Nc1cccc(-c2ccccc2)c1)[C@@H]1CNC[C@H]1c1cccs1 (racemic) [Compound I-22, (±)-trans-N-(Biphenyl-3-yl)-4-(thiophen-2-yl)pyrrolidine-3-carboxamide hydrochloride]"
